Experimental data as given in article PMC3038857, “Using Nuclear Receptor Activity to Stratify Hepatocarcinogens” (PLoS ONE, 2011).

Assays:
[1] = system: CYP1A1; assay: CLZD_CYP1A1: Change in expression of CYP1A1 (primary human hepatocytes); assay type: cell-based; settings: 24 hr, scale not given, looks like -log10 of molar active concentration, 0 = no activity
Summary of the method: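 Chemicals are tested in human hepatocyte primary cultures over 0.004-40 µM (5 concentrations) for 6, 24 or 48 hr, and concentration- and time-dependent transcript changes are read by quantitative nuclease protection assay.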

[2] = biological target: T1, ERa (ESR1) (Homo sapiens, UniProt P03372); assay: NCGC_ERalpha_Agonist: GAL4 BLAM Reporter gene assay: ERa; assay type: cell-based; settings: agonist mode; scale not given, looks like -log10 of molar active concentration; 0 = no activity
T1 construct: expressed in transfected cells; host or cells: HEK293
Procedure: (§1) These assays measure binding constants and enzyme inhibition values for nuclear receptors. The targets include [drawing 67] , [drawing 68] , [drawing 69] , [drawing 70] , [drawing 71] , [drawing 72] , [drawing 73] , [drawing 74] , [drawing 75] and [drawing 76] . Each of the nuclear receptor targets was measured in agonist mode. Assays were run at the NIH Chemical Genomics Center (Rockville, MD).
(§2) Cell-based HTS Assays: These assays measuring binding constants and enzyme inhibition values for nuclear receptors. The targets include AR, ER, FXR, LXR, PPARα, PPARδ, PPARγ, RXRα, RXRβ and PXR. Each of the nuclear receptor targets was measured in both agonist and antagonist mode, but the antagonist data is still undergoing analysis due to possible interference between cytotoxicity and assay activity, so antagonist mode data were not used in the present analysis. Assays were run at the NIH Chemical Genomics Center (Rockville, MD) as part of the Tox21 collaboration. […] The R^2 was required to be ≥0.5. Values where only the highest concentration exceeded 50% activity were excluded to eliminate weak or false positives. Detailed description of the methods, data and analysis methods for this dataset will be presented in a separate publication.

[3] = system: LXRa (NR1H2); assay: NCGC_LXR_Agonist: GAL4 BLAM Reporter gene assay: LXRa; assay type: cell-based, human; settings: agonist mode; scale not given, looks like -log10 of molar active concentration; 0 = no activity
Procedure: as §1, §2

[4] = system: AR (androgen receptor); assay: NVS_NR_hAR: Human AR 3H-Methyltrienolone (cell-free HTS); assay type: binding; settings: scale not given, looks like -log10 of molar active concentration, 0 = no activity
Summary of the method: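 Cell-free biochemical binding assays; chemicals first screened at a single concentration of 25 […] M in duplicate wells. Signals normalised to same-plate solvent controls as percent of neutral control, and AC50 values came from Hill-equation fits of concentration-response curves.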

[5] = biological target: Human ER (ESR1) (Homo sapiens, UniProt P03372); assay: NVS_NR_hER: Human ER 3H-Estradiol (cell-free HTS); assay type: binding; settings: scale not given, looks like -log10 of molar active concentration, 0 = no activity
From the text: These are a collection of biochemical assays measuring binding constants and enzyme inhibition values. Chemicals were initially screened at a single concentration in duplicate wells at a concentration of 10 [drawing 63] M for cytochrome P-450 assays and 25 [drawing 64] M for all others. […] These assays were run by Caliper Life Sciences (Hanover, MD) under contract to EPA. Short assay descriptions are available at: http://www.caliperls.com/products/contract-research/in-vitro/.
Cell-free HTS Assays: A collection of biochemical assays measuring binding constants and enzyme inhibition values. […] These assays were run by Caliper Life Sciences (Hanover, MD) under contract to EPA. Short assay descriptions are available at http://www.caliperls.com/products/contract-research/in-vitro/. Values for all endpoints were imported into GeneData Screener (Basel, Switzerland) and normalised to solvent controls from the same plate as the tested compounds and expressed as percent of neutral control. Concentration-response curves were fit in GeneData Screener (Basel, Switzerland) Condeseo module using the Hill equation and AC50 values were determined. […] Detailed description of the methods, data and analysis methods for this dataset are described in a separate publication.

[6] = biological target: T2, CAR (NR1I3) (Homo sapiens, UniProt Q14994); assay: ATG_PBREM_CIS: Factorial reporter gene assay (HepG2); assay type: cell-based; design: endogenous in cells; host or cells: HepG2; scale not given here; settings: HepG2; scale not given, looks like -log10 of molar active concentration; 0 = no activity
T2 sequence (Q14994 1-352): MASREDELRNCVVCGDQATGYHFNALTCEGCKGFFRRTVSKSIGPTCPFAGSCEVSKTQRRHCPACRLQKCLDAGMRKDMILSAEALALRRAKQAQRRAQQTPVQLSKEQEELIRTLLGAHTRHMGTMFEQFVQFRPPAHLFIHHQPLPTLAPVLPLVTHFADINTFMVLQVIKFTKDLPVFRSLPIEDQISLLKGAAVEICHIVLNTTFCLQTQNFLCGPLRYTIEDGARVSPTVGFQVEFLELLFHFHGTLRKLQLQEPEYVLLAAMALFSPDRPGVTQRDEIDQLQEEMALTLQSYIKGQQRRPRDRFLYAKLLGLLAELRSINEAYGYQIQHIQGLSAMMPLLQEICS
Summary of the method: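 Seven concentrations per chemical, three-fold dilutions down from the MTC, were tested in HepG2 hepatoma cells. Those cells carried a multiple reporter transcription unit library, read either as cis transcription-factor-site reporters or as a trans mammalian one-hybrid panel for nuclear receptors.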

Chain of Human ER (ESR1) (P03372 whole entry): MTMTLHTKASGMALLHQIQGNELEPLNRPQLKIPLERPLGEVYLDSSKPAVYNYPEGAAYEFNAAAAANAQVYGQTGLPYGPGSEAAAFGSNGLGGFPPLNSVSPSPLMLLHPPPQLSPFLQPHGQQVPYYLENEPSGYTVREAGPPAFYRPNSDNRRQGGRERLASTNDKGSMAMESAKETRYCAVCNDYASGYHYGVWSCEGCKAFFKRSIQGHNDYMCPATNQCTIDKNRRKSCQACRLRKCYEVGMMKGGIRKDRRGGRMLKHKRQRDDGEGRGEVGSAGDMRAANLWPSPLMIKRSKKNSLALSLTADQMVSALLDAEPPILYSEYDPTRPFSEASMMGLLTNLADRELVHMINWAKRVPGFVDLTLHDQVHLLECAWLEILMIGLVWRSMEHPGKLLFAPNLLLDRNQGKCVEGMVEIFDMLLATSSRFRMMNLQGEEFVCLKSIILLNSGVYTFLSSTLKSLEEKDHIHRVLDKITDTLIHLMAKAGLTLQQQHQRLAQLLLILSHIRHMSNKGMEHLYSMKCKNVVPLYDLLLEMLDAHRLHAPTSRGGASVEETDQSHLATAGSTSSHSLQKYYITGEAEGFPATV
T1 sequence (P03372 whole entry, the tested form may be a part): as the sequence (P03372 whole entry) above

CCOC(=O)C(Cl)Cc1cc(-n2nc(C)n(C(F)F)c2=O)c(F)cc1Cl (stereo not drawn) [r54]
0: CLZD_CYP1A1_24 [1] | NCGC_ERalpha_Agonist [2] | NCGC_LXR_Agonist [3] | NVS_NR_hAR [4] | NVS_NR_hER [5] | ATG_PBREM_CIS [6]

Nc1cnn(-c2ccccc2)c(=O)c1Cl [r56]
0: CLZD_CYP1A1_24 [1] | NCGC_ERalpha_Agonist [2] | NCGC_LXR_Agonist [3] | NVS_NR_hAR [4] | NVS_NR_hER [5] | ATG_PBREM_CIS [6]

N#Cc1c(Cl)c(Cl)c(Cl)c(C#N)c1Cl [r58]
0: CLZD_CYP1A1_24 [1] | NCGC_ERalpha_Agonist [2] | NCGC_LXR_Agonist [3] | NVS_NR_hAR [4] | NVS_NR_hER [5] | ATG_PBREM_CIS [6]

COc1nc(C)nc(NC(=O)NS(=O)(=O)c2ccccc2Cl)n1 [r62]
0: CLZD_CYP1A1_24 [1] | NCGC_ERalpha_Agonist [2] | NCGC_LXR_Agonist [3] | NVS_NR_hAR [4] | NVS_NR_hER [5] | ATG_PBREM_CIS [6]

COc1nc(C)nc(NC(=O)NS(=O)(=O)c2ccccc2Cl)n1 [r63]
0: CLZD_CYP1A1_24 [1] | NCGC_ERalpha_Agonist [2] | NCGC_LXR_Agonist [3] | NVS_NR_hAR [4] | NVS_NR_hER [5] | ATG_PBREM_CIS [6]
